Reference: PMC10726440, “N-Biphenyl Pyrrolinones and Dibenzofurans as RNA-Binding Protein LIN28 Inhibitors Disrupting the LIN28–Let-7 Interaction” (ACS Medicinal Chemistry Letters, 2023)
“And” between values parts separate entries of the source, which are not always exact repeats. Equal entries are not always repeated.

Experiments:
[1] = biological target: T1, LIN28A (16-126) CSD protein (Homo sapiens, UniProt Q9H9Z2); assay: Nano differential scanning fluorimetry (nanoDSF) thermal shift; format: binding; settings: compound at 75 μM
T1 construct: incubated with LIN28A (16-126) CSD protein; pET19a or pMAL vector) (cleaved yes); made in house; host or cells: Escherichia coli BL21(DE3)
T1 sequence (Q9H9Z2 16-126): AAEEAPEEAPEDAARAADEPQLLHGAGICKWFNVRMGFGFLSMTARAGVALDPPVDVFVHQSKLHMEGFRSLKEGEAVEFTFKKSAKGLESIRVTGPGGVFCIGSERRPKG
Protocol: (§1) Nano differential scanning fluorimetry (nanoDSF)
Compounds (final concentration 75 µM) were incubated with LIN28A (16-126) CSD protein
for 45 minutes at room temperature in a buffer containing 30 mM NaH2PO4, 50 mM NaCl and
1 mM MgCl2 at pH 8.0. Thermal protein stability was determined using NanoTemper
Prometheus NT.48 with a temperature ramp from 20 °C to 90 °C increasing the temperature by
1 °C per minute. Melting temperatures were determined using the software of the device. […]
(§2) Master Mix II, with UNG (A pplied Biosystems) and a CFX Connect Real -Time PCR System

[2] = biological target: T2, LIN28A(16–187)–let-7 interaction (Homo sapiens, UniProt Q9H9Z2); assay: Electrophoretic mobility shift assay (EMSA), disruption of LIN28–let-7 complex; format: binding; settings: for IC50: concentration-dependent EMSA, some values estimated, read-out: IC50 in dose–response EMSA; for inhibition at 75 µM: single concentration of 75 μM, read-out: inhibition of the LIN28–let-7 interaction measured in EMSA
T2 construct: LIN28A(16–187) or LIN28B(24–111); pET19a or pMAL vector) (cleaved yes); made in house; host or cells: Escherichia coli BL21(DE3)
T2 sequence (Q9H9Z2 16-187): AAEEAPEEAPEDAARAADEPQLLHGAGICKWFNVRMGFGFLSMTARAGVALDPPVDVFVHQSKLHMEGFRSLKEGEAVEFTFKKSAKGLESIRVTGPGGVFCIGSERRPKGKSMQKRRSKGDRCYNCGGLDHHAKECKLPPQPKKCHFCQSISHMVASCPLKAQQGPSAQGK
Protocol: (§3) Inhibition of the LIN28–let-7 complex was evaluated by electrophoretic mobility shift assays. Mixtures containing compound at indicated concentrations, LIN28A(16–187) or LIN28B(24–111), and recombinant ribonuclease inhibitor (TaKaRa Bio) were incubated at room temperature for 2 h. The reaction buffer contained 50 mM TRIS, pH 7.5, 100 mM NaCl, 10 mM β-mercaptoethanol, 50 μM ZnCl2, 2% DMSO, 0.01% Tween-20 and 12% glycerol. Cy-3-fluorophore labeled RNA, (pre-E let-7f-1-Cy3, Mus musculus, […]-Cy3, purchased from IDT) was added to the reaction and incubated for further 15 min. The final concentrations were as follows: 10 nM LIN28A or 200 nM LIN28B, 5 nM RNA. Of each mixture, 10 μL was analyzed on a nondenaturing PAGE (5.3% acrylamide TAE PAGE for full-length LIN28 and 10% acrylamide TAE PAGE for analysis of the CSD) prerun for 1 h without sample and run for 1 h at 220 V at 4 °C in 0.25× TAE buffer. Gels were imaged using a ChemiDoc MP instrument (Bio-Rad Laboratories). Band intensities were analyzed using ImageJ and inhibition was quantified by calculation of the ratio of free RNA fluorescence to the fluorescence of the protein–RNA complex, and normalization to free RNA and LIN28–let-7 complex controls. The intensity ratio was analyzed by nonlinear regression fit in GraphPad Prism to determine the IC50 values.

LIN28B–let-7 interaction = biological target: T3, LIN28B–let-7 interaction (Homo sapiens, UniProt Q6ZN17); assay: EMSA with LIN28B; format: binding; settings: Figure S3
T3 construct: residues 24–111 of the LIN28B cold shock domain; pET19a or pMAL vector) (cleaved yes); made in house; host or cells: Escherichia coli BL21(DE3)
T3 sequence (Q6ZN17 24-111): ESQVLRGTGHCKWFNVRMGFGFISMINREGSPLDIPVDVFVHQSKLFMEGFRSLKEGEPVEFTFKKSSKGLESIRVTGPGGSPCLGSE
Protocol: as §3

LIN28A CSD = biological target: T4, LIN28A CSD (Homo sapiens, UniProt Q9H9Z2); assay: Biolayer interferometry (BLI); format: binding
T4 construct: residues 16–126 of the LIN28A cold shock domain; pET19a or pMAL vector) (cleaved yes); made in house; host or cells: Escherichia coli BL21(DE3)
T4 sequence (Q9H9Z2 16-126): T1 sequence (Q9H9Z2 16-126)
Protocol: (§4) Biolayer Interferometry (BLI)
(§5) Recombinant LIN28A CSD was biotinylated with EZ-Link Sulfo NHS-LC-LC-Biotin (Thermo Fisher Scientific) following the manufacturer's guidelines with a labeling ratio of one biotin per protein. Free biotin reagent was removed during dialysis against buffer (20 mM HEPES pH 7.5, 150 mM NaCl, 1 mM MgCl2). After loading optimization, the protein was immobilized on SA biosensors (Sartorius). The association and dissociation of compounds were recorded in a buffer containing 20 mM HEPES pH 7.5, 150 mM NaCl, 1 mM MgCl2, 0.05 % Tween 20, 1 % DMSO and 0.3 mg/mL BSA. Data was measured and analyzed using an Octet Red384 instrument (Sartorius). Double referencing against samples without compound and sensors loaded with 10 µg/mL biocytin instead of protein was performed. […]
as §2

[3] = test system: mature let-7d and let-7i levels in JAR cells; assay: qPCR of mature let-7 miRNA levels in JAR cells; format: cell-based; settings: 24 h
Protocol: as §1
Compounds (final concentration 75 µM) were incubated with LIN28A (16-126) CSD protein for 45 minutes at room temperature in a buffer containing 30 mM NaH2PO4, 50 mM NaCl and 1 mM MgCl2 at pH 8.0. Thermal protein stability was determined using NanoTemper Prometheus NT.48 with a temperature ramp from 20 °C to 90 °C increasing the temperature by 1 °C per minute. Melting temperatures were determined using the software of the device.
as §4
as §5, with “After loading optimization, the protein was immobilized on SA biosensors (Sartorius).” left out, “(Sartorius).” for “(Sartorius). Double referencing against samples without compound and sensors loaded with 10 µg/mL biocytin instead of protein was performed.”
For computational docking analysis of pyrrolinones 11S/R to the RNA binding site of LIN28A (PDB code: 5UDZ)1 Schrödinger® Maestro 12.3 was used. […] The glide dock module was used and the results were evaluated according to interactions between small molecules and LIN28A, small molecule orientations, docking scores and solvent exposure patterns. […]

Cn1nnc2cc(C3C(C(=O)c4ccccc4)=C(O)C(=O)N3c3ccc(O)c(C(=O)O)c3)ccc21 (centres unmarked) [Compound 8]
increase in thermal stability (melting temperature shift) of the LIN28 CSD [1]: less than 0.5 °C
IC50 [2]: > 75 µM and ~90 µM
inhibition at 75 µM [2]: 69.9%

O=C(C1=C(O)C(=O)N(c2cccc(-c3ccccc3)c2)[C@@H]1c1ccc([N+](=O)[O-])cc1)c1ccccc1 [Compound 11R]
increase in thermal stability (melting temperature shift) of the LIN28 CSD [1]: ~1.9 °C
IC50 [2]: 24 µM

O=C(C1=C(O)C(=O)N(c2cccc(-c3ccccc3)c2)[C@H]1c1ccc([N+](=O)[O-])cc1)c1ccccc1 [Compound 11S]
increase in thermal stability (melting temperature shift) of the LIN28 CSD [1]: ~1.9 °C
IC50 [2]: 37 µM

O=C(C1=C(O)C(=O)N(c2cccc(-c3ccccc3)c2)C1c1ccc([N+](=O)[O-])cc1)c1ccccc1 (centres unmarked) [Compound 11]
IC50 [2]: 27 µM
inhibition at 75 µM [2]: 95%
inhibition of the LIN28B–let-7 interaction in EMSA (in words) (LIN28B–let-7 interaction): concentration-dependent manner
direct binding to the LIN28 CSD in biolayer interferometry (in words) (LIN28A CSD): concentration-dependent binding
effect on biogenesis of mature let-7i and let-7d miRNAs (in words) [3]: concentration-dependent manner

O=C(C1=C(O)C(=O)N(c2ccc3c(c2)oc2ccccc23)C1c1ccc([N+](=O)[O-])cc1)c1ccc(Br)cc1 (centres unmarked) [Compound 46]
inhibition at 75 µM [2]: 86%

COc1ccc(C(=O)C2=C(O)C(=O)N(c3ccc4c(c3)oc3ccccc34)C2c2ccc([N+](=O)[O-])cc2)cc1 (centres unmarked) [Compound 47]
inhibition at 75 µM [2]: 87%

O=C(C1=C(O)C(=O)N(c2ccc3c(c2)oc2ccccc23)C1c1ccc([N+](=O)[O-])cc1)c1ccc(F)cc1 (centres unmarked) [Compound 48]
inhibition at 75 µM [2]: 93%

O=C(C1=C(O)C(=O)N(c2ccc3c(c2)oc2ccccc23)C1c1ccc([N+](=O)[O-])cc1)c1ccco1 (centres unmarked) [Compound 49]
inhibition of LIN28–let-7 complex formation in concentration-dependent EMSA (in words) ([2]; dose–response EMSA): best inhibitory activities among the evaluated molecules
inhibition at 75 µM [2]: 95%
